From ChEMBL document CHEMBL1130706, “Synthesis and structure-activity relationships of adenosine analogs as inhibitors of trypanosomal glyceraldehyde-3-phosphate dehydrogenase. Modifications at positions 5' and 8” (Bioorg Med Chem Lett, 1998)

Columns and labels:
Leishmania mexicana [1] = assay: Inhibition of Leishmania mexicana GAPDH(glyceraldehyde-3-phosphate dehydrogenase); design: concentration or dose not given beside the values; settings: concentration not given here
[2] = tested on: CC(C)=CCNc1ncnc2c1nc(-c1cccs1)n2C1O[C@H](CO)[C@@H](O)[C@H]1O
Description: Inhibition of human erythrocyte GAPDH(glyceraldehyde-3-phosphate dehydrogenase) expressed as KM value

Leishmania mexicana [3] = tested on: Leishmania mexicana
Description: Inhibition of Leishmania mexicana GAPDH(glyceraldehyde-3-phosphate dehydrogenase) expressed as KM value

Chain of Glyceraldehyde-3-phosphate dehydrogenase (Homo sapiens), P04406 (P04406 whole entry): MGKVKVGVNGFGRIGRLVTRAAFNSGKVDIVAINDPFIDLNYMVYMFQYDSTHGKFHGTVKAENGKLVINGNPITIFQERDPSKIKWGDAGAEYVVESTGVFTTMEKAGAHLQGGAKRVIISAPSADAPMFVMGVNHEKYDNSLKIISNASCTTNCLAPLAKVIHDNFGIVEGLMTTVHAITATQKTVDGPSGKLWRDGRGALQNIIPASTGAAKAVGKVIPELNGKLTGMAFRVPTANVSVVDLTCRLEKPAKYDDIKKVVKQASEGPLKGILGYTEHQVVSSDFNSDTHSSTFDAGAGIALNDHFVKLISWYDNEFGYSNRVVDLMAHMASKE

Compound	inhibition (Leishmania mexicana [1]) [%]	also measured
Nc1ncnc2c1nc(NCc1ccccc1)n2[C@@H]1O[C@H](CO)[C@@H](O)[C@H]1O	100	
CC(C)=CCNc1ncnc2c1ncn2[C@@H]1O[C@H](CO)[C@@H](O)[C@H]1O	84	
Nc1ncnc2c1ncn2C1O[C@H](COC(=O)CCC(=O)O)[C@@H](O)[C@H]1O (some centres undefined)	100	
CN(C)c1nc2c(N)ncnc2n1C1O[C@H](CO)[C@@H](O)[C@H]1O (some centres undefined)	75	
O=C(CC1CCCCC1)NC[C@H]1OC(n2cnc3c(NCc4ccccc4)ncnc32)[C@H](O)[C@@H]1O (some centres undefined)	77	
Cc1ccccc1CNc1ncnc2c1nc(-c1cccs1)n2C1O[C@H](CO)[C@@H](O)[C@H]1O (some centres undefined)	100	
Nc1ncnc2c1ncn2C1O[C@H](COC(=O)c2ccc3ccccc3c2)[C@@H](O)[C@H]1O (some centres undefined)	100	
NC(=O)CCC(=O)NC[C@H]1OC(n2cnc3c(NCc4ccccc4)ncnc32)[C@H](O)[C@@H]1O (some centres undefined)	74	
Nc1ncnc2c1nc(N1CCCC1)n2C1O[C@H](CO)[C@@H](O)[C@H]1O (some centres undefined)	100	
Glyceraldehyde-3-phosphate dehydrogenase (Homo sapiens), P04406		Km [2]: 40 µM
Nc1ncnc2c1nc(NCCO)n2C1O[C@H](CO)[C@@H](O)[C@H]1O (some centres undefined)	80	
O=C(Cc1ccccc1)NC[C@H]1OC(n2cnc3c(NCc4ccccc4)ncnc32)[C@H](O)[C@@H]1O (some centres undefined)	77	
Nc1ncnc2c1nc(N1CCCCC1)n2[C@@H]1O[C@H](CO)[C@@H](O)[C@H]1O	100	
O=C(O)CCCC(=O)NC[C@H]1OC(n2cnc3c(NCc4ccccc4)ncnc32)[C@H](O)[C@@H]1O (some centres undefined)	79	
O=C(NC[C@H]1OC(n2cnc3c(NCc4ccccc4)ncnc32)[C@H](O)[C@@H]1O)c1cc(O)cc(O)c1 (some centres undefined)	100	
CC(C)=CCNc1ncnc2c1nc(-c1cccs1)n2C1O[C@H](CO)[C@@H](O)[C@H]1O (some centres undefined)		Km (Leishmania mexicana [3]): 400 µM
COc1cccc(C(=O)N[C@@H]2[C@H](O)[C@@H](COC(=O)c3ccccc3C(=O)O)O[C@H]2n2cnc3c(NCc4ccccc4)ncnc32)c1	100	
Nc1ncnc2c1ncn2[C@@H]1O[C@H](COC(=O)c2ccccc2)[C@@H](O)[C@H]1O	67	
OC[C@H]1OC(n2c(-c3cccs3)nc3c(NCc4ccccc4)ncnc32)[C@H](O)[C@@H]1O (some centres undefined)	100	
